PubChem BioAssay (NCI)
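48-hour exposure; five concentrations; linearly interpolated endpoints. TGI: total growth inhibition.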

Test system: P388 leukemia
Test: NCI tumour cell line growth inhibition, 48 h

For `O=C(CCN1CCCCC1)C(=Cc1ccccc1)C(=O)CCN1CCCCC1`, the TGI was > 31.6 µM.
